Experimental data from US8362054B2, “Therapeutic substituted lactams” (Allergan, Inc., priority 2007, dated 2013).

Tests used:
[1] = target: T1, EP2 (Homo sapiens, UniProt P43116); assay: EP2 flipr functional assay; format: cell-based
Description: (§1) U.S. patent application Ser. No. 11/553,143, filed on Oct. 26, 2006, incorporated by reference herein, describes the methods used to obtain the in vitro data in the table below.

[2] = target: T1, EP2; assay: EP2 cAMP assay; format: cell-based
Description: as §1

[3] = target: T1, EP2; assay: EP2 binding (Ki)
Description: as §1

[4] = target: T2, EP4 (Homo sapiens, UniProt P35408); assay: EP4 flipr functional assay; format: cell-based
T2 sequence (P35408 whole entry): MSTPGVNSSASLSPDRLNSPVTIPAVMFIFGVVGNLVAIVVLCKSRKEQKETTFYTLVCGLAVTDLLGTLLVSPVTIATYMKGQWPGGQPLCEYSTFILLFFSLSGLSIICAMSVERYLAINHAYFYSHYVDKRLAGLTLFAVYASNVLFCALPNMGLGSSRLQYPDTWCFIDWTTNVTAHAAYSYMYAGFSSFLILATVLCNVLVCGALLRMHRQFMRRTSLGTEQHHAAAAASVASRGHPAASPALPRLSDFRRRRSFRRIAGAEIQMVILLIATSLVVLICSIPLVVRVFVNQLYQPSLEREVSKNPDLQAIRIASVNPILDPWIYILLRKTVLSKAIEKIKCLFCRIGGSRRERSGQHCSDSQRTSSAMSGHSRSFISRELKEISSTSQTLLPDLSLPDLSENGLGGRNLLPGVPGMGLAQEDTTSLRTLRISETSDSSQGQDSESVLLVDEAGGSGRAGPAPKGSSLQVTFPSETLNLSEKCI
Description: as §1

[5] = target: T2, EP4; assay: EP4 binding (KI)
Description: as §1

[6] = target: T3, hEP3A (Homo sapiens, UniProt P43115); assay: Other receptors functional assay, hEP3A; format: cell-based
T3 sequence (P43115 1-390): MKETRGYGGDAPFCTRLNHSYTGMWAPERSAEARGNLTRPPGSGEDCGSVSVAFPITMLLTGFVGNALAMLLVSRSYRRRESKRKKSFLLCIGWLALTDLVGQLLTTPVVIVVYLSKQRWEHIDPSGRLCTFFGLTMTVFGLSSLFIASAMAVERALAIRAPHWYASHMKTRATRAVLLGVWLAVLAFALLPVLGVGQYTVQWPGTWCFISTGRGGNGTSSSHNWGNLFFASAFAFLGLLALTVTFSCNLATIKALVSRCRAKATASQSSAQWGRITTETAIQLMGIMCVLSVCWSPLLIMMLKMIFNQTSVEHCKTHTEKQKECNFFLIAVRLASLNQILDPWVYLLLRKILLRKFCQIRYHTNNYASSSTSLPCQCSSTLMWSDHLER
Description: as §1

T1 sequence (P43116 whole entry): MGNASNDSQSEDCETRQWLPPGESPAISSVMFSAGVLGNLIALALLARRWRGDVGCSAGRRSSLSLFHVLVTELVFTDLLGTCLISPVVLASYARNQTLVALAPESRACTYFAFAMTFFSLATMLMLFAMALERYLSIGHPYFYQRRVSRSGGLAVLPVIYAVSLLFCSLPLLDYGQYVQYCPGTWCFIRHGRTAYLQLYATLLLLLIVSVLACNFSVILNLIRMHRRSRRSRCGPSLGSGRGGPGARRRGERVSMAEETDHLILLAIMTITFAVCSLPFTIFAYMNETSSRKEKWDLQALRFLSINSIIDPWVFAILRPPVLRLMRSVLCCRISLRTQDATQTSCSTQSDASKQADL

- EC50 [1]: 8.51 µM
- EC50 [2]: 0.081 µM
- Ki [3]: 2.57 µM
- EC50 [4]: > 10 µM
- Ki [5]: 7.3 µM
- EC50 [6]: 6450 nM
Structure (SMILES): O=C(O)c1ccc(COC[C@H]2CCC(=O)N2Cc2cc(Cl)cc(Cl)c2)s1 [(R)-5-(((1-(3,5-dichlorobenzyl)-5-oxopyrrolidin-2-yl)methoxy)methyl)thiophene-2-carboxylic acid]
